# Values of other authors in PMC13021292, “Safety, tolerability and pharmacokinetics of DNDI‐6148, a novel agent for leishmaniasis: A randomized, controlled, single ascending dose study in healthy participants” (British Journal of Clinical Pharmacology, 2025).
# Design: method as in earlier work
# Conditions: cited from earlier work
compound,measurement,value
CC1(C)OB(O)c2cc(NC(=O)c3ccc(F)cc3C(F)(F)F)ccc21 [acoziborole],metabolism and elimination in humans,slow liver metabolism and predominant hepato‐biliary elimination
